Results from patent US9199962B2, “Substituted azaheterocycles for the treatment of cancer” (Merck Patent GmbH, priority 2011, dated 2015).
Where two headings read alike, the source gives them in different places.

Key:
[1] = biological target: T1, GST-FAK (N-terminal GST fusion with truncated human FAK (376-1052 (end) amino acids)) (Homo sapiens, UniProt Q05397); experiment: Biochemical enzyme assay for FAK activity (Caliper LC3000 mobility shift); details: 100 uM ATP
T1 construct: truncated human FAK (376-1052 (end) amino acids)
T1 sequence (Q05397 376-1052): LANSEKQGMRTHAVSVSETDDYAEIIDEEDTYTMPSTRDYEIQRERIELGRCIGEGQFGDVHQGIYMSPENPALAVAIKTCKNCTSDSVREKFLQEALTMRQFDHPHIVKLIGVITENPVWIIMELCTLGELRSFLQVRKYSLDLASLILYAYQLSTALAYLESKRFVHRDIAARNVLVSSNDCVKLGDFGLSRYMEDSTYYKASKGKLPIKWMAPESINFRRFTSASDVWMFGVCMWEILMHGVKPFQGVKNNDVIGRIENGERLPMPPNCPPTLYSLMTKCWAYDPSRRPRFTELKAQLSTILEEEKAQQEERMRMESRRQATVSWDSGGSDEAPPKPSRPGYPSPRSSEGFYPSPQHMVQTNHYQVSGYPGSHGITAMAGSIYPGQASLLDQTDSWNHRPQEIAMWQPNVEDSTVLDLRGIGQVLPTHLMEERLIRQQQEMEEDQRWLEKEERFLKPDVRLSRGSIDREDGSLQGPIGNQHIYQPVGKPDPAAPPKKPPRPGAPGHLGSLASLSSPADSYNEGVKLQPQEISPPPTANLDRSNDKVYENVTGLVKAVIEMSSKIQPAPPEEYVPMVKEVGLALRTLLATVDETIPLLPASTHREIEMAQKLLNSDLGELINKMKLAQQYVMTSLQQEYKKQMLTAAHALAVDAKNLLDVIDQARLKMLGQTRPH
Method in brief: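 Inhibitor dose series in DMSO were incubated 90 min at 25 °C with truncated GST-tagged human FAK (0.067 ng/µl) and FITC-labelled peptide substrate (1 µM), with ATP at 100 µM and FERM peptide at 1 mM (pH 7.5 HEPES). After EDTA quench, phosphorylated and unphosphorylated peptides were resolved electrophoretically. Percent conversion was fitted for IC50.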

[2] = biological target: T2, focal adhesion kinase (FAK) autophosphorylation at tyrosine 397 in HT29 cells (Homo sapiens, UniProt Q05397); experiment: Cellular testing of FAK inhibitors: FAK autophosphorylation at tyrosine 397 in HT29 cells (Luminex-based assay); type: cell-based; details: 30 min serum-free
T2 construct: endogenous in cells; host or cells: HT29
T2 sequence (Q05397 whole entry): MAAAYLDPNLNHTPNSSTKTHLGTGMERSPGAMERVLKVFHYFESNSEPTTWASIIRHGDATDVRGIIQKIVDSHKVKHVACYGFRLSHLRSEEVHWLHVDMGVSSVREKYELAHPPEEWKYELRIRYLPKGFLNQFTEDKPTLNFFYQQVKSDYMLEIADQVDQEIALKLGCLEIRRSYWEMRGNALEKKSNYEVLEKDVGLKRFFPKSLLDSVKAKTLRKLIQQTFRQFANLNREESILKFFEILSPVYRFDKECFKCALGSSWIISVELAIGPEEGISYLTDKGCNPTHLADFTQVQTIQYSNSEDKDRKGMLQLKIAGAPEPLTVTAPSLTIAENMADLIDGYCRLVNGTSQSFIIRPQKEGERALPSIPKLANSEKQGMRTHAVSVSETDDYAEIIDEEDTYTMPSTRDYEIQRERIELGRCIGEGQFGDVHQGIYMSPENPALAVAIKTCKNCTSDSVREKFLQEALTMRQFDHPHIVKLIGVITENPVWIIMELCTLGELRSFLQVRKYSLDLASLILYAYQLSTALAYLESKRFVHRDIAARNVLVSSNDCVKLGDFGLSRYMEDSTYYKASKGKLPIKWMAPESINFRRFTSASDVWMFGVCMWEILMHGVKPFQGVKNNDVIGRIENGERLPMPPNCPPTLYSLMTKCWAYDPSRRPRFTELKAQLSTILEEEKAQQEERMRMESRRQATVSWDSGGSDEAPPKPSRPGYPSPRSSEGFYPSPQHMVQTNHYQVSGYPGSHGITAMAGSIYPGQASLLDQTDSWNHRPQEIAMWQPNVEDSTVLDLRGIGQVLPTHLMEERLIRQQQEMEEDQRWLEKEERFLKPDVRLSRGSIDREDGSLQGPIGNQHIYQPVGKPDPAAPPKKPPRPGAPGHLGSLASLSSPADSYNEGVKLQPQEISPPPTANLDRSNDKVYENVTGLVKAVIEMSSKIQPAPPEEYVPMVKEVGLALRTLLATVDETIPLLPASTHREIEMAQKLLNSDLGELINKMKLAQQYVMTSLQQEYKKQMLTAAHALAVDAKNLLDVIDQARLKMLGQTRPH
Method: 2. Assay Principle for Celluar Testing of FAK Inhibitors
Cellular activity of focal adhesion kinase (FAK) is determined by the degree of FAK autophosphorylation at tyrosine 397 using a Luminex-based assay. HT29 cells are plated with 30,000 cells per well of a 96-well plate in 100 μl medium (90% DMEM/10% FCS). At the following day, test compounds are added in a serial dilution under serum-free conditions for 30 min. Then, cells were lysed with 90 μl lysis buffer (20 mM Tris/HCl pH 8.0, 150 mM NaCl, 1% NP40, 10% Glycerol, 1% Phosphatase-Inhibitor II, 20 mM […]-Glycerolphosphat, 0.1% Protease-Inhibitor Cocktail III, 0.01% Benzonase) and lysates were cleared by centrifugation through a 96-well filter plate (0.65 μm). Samples were incubated with Luminex-beads which were coupled with an anti-total FAK antibody overnight at 4° C. with under gentle agitation. For detection of phospho-Y397-FAK a phosphospecific antibody and a species specific PE-labeled secondary antibody are added. The amount of phospho-Y397-FAK is determined in a Luminex100 machine measuring 100 events per well within 60 seconds.
Counts from samples treated with a FAK reference inhibitor are subtracted as pharmacological blank. Counts from samples treated with test compounds are calculated as percent of control from solvent treated (0.3% DMSO) samples. IC50 values were determined using AssayExplorer software.

[3] = Table 3, phospho-Y397-FAK, read-out: HT-29 IC50
[4] = Table 4, phospho-Y397-FAK, read-out: IC50 HT-29

Work on `CC(Nc1ccnc(-c2cccnc2N)n1)c1ccccc1C(F)(F)F` (centres unmarked) [Compound 115, 2-(2-Aminopyridin-3-yl)-N-{1-[2-(trifluoro-methyl)phenyl]ethyl}pyrimidin-4-amine] yielded an IC50 ([1]; Table 3, read-out: FAK IC50) of 0.1 to 1 µM and an IC50 [2, 3] greater than 10 µM.

With `FC(F)(F)c1cc(Cl)ccc1CNc1ccnc(-c2cncc(Cl)c2)n1` [Compound 118, 2-(5-Chloropyridin-3-yl)-N-[4-chloro-2-(trifluoromethyl)benzyl]pyrimidin-4-amine] the IC50 ([1]; Table 3, read-out: FAK IC50) was less than 0.1 µM and the IC50 [2, 3] was 1 to 10 µM.

For `Fc1ccc(CNc2ccnc(-c3cncc(Cl)c3)n2)c(C(F)(F)F)c1` [Compound 119, 2-(5-Chloropyridin-3-yl)-N-[4-fluoro-2-(trifluoromethyl)benzyl]pyrimidin-4-amine], the IC50 ([1]; Table 3, read-out: FAK IC50) was less than 0.1 µM and the IC50 [2, 3] was 1 to 10 µM.

With `Fc1ccc(CNc2ccnc(-c3cncc(C(F)(F)F)c3)n2)c(C(F)(F)F)c1` [Compound 123, N-[4-Fluoro-2-(trifluoromethyl)benzyl]-2-[5-(trifluoromethyl)pyridin-3-yl]pyrimidin-4-amine] the IC50 ([1]; Table 3, read-out: FAK IC50) was less than 0.1 µM and the IC50 [2, 3] was 1 to 10 µM.

With `CC(Nc1ccnc(-c2cncc(Cl)c2)n1)c1ccccc1C(F)(F)F` (centres unmarked) [Compound 124, 2-(5-Chloropyridin-3-yl)-N-{1-[2-(trifluoromethyl)phenyl]ethyl}pyrimidin-4-amine] the IC50 ([1]; Table 3, read-out: FAK IC50) was less than 0.1 µM and the IC50 [2, 3] was 1 to 10 µM.

With `Fc1ccc(CNc2ccnc(-c3cncc(C(F)(F)F)c3)n2)c(F)c1` [Compound 125, N-(2,4-Difluorobenzyl)-2-[5-(trifluoromethyl)pyridin-3-yl]pyrimidin-4-amine] the IC50 ([1]; Table 3, read-out: FAK IC50) was less than 0.1 µM and the IC50 [2, 3] was 1 to 10 µM.

Compound `Nc1ncc(Cl)cc1-c1nccc(NCc2ccc(F)cc2F)n1` [Compound 126, 2-(2-Amino-5-chloropyridin-3-yl)-N-(2,4-difluorobenzyl)pyrimidin-4-amine] has an IC50 ([1]; Table 3, read-out: FAK IC50) of less than 0.1 µM and an IC50 [2, 3] of 1 to 10 µM.

For `Clc1cncc(-c2nccc(NCc3cccc4c3OCO4)n2)c1` [Compound 127, N-(1,3-Benzodioxol-4-ylmethyl)-2-(5-chloropyridin-3-yl)pyrimidin-4-amine], the IC50 ([1]; Table 3, read-out: FAK IC50) was less than 0.1 µM and the IC50 [2, 3] was greater than 10 µM.

Compound `Nc1ncc(Cl)cc1-c1nccc(NCc2ccccc2C(F)(F)F)n1` [Compound 129, 2-(2-Amino-5-chloropyridin-3-yl)-N-[2-(trifluoromethyl)benzyl]pyrimidin-4-amine] has an IC50 ([1]; Table 3, read-out: FAK IC50) of less than 0.1 µM and an IC50 [2, 3] of 1 to 10 µM.

In the case of `CC(Nc1ccnc(-c2cncc(C(F)(F)F)c2)n1)c1ccccc1C(F)(F)F` (centres unmarked) [Compound 130, N-{1-[2-(Trifluoromethyl)phenyl]ethyl}-2-[5-(trifluoromethyl)pyridin-3-yl]pyrimidin-4-amine], the IC50 ([1]; Table 3, read-out: FAK IC50) is reported as less than 0.1 µM and the IC50 [2, 3] is reported as greater than 10 µM.

`Clc1cncc(-c2nccc(NCc3cccc4nsnc34)n2)c1` [Compound 131, N-(2,1,3-Benzothiadiazol-4-ylmethyl)-2-(5-chloropyridin-3-yl)pyrimidin-4-amine] showed an IC50 ([1]; Table 3, read-out: FAK IC50) of less than 0.1 µM and an IC50 [2, 3] greater than 10 µM.

For `FC(F)(F)c1cncc(-c2nccc(NCc3ccc(Cl)cc3C(F)(F)F)n2)c1` [Compound 132, N-[4-Chloro-2-(trifluoromethyl)benzyl]-2-[5-(trifluoro-methyl)pyridin-3-yl]pyrimidin-4-amine], the IC50 ([1]; Table 3, read-out: FAK IC50) was less than 0.1 µM and the IC50 [2, 3] was 1 to 10 µM.

In the case of `Nc1ncc(Cl)cc1-c1nccc(NCc2ccc(F)cc2C(F)(F)F)n1` [Compound 134, 2-(2-Amino-5-chloropyridin-3-yl)-N-[4-fluoro-2-(trifluoromethyl)benzyl]pyrimidin-4-amine], the IC50 ([1]; Table 3, read-out: FAK IC50) is reported as less than 0.1 µM and the IC50 [2, 3] is reported as 1 to 10 µM.

`CN(C)CCNC(=O)c1cc(NCc2ccc(F)cc2F)nc(-c2cncc(C(F)(F)F)c2)n1` [Compound 148, 6-[(2,4-difluorophenyl)methylamino]-N-(2-dimethylaminoethyl)-2-[5-(trifluoromethyl)-3-pyridyl]pyrimidine-4-carboxamide] gave an IC50 ([1]; Table 4, read-out: IC50 FAK) of less than 0.1 µM and an IC50 [2, 4] of 0.1 to 1 µM.

In the case of `Fc1ccc(F)c(CNc2ccnc(-c3cncc(C(F)(F)F)c3)n2)c1` [Compound 154, N-[(2,5-difluorophenyl)methyl]-2-[5-(trifluoromethyl)-3-pyridyl]pyrimidin-4-amine], the IC50 ([1]; Table 4, read-out: IC50 FAK) is reported as 0.1 to 1 µM and the IC50 [2, 4] is reported as 1 to 10 µM.

With `O=C(NCCN1CCCC1=O)c1cc(NCc2ccc(F)cc2F)nc(-c2cncc(C(F)(F)F)c2)n1` [Compound 160, 6-[(2,4-difluorophenyl)methylamino]-N-[2-(2-oxopyrrolidin-1-yl)ethyl]-2-[5-(trifluoromethyl)-3-pyridyl]pyrimidine-4-carboxamide] the IC50 ([1]; Table 4, read-out: IC50 FAK) was less than 0.1 µM and the IC50 [2, 4] was 0.1 to 1 µM.
